Data from ChEMBL document CHEMBL2413072, “Synthesis and in vitro anticancer studies of novel C-2 arylidene congeners of lantadenes” (2013).

Columns and labels:
Type in all cases: functional
[1] = tested on: RPMI-8226; experiment: Growth inhibition of human RPMI8226 cells by sulforhodamine B assay
[2] = tested on: CCRF-CEM; experiment: Growth inhibition of human CCRF-CEM cells by sulforhodamine B assay
[3] = tested on: OVCAR-3; experiment: Growth inhibition of human OVCAR3 cells assessed as cell growth at 10^-8 M by sulforhodamine B assay; details: read-out: Activity
[4] = tested on: NCI-H460; experiment: Growth inhibition of human NCI-H460 cells assessed as cell growth at 10^-8 M by sulforhodamine B assay; details: read-out: Activity
[5] = tested on: T47D; experiment: Growth inhibition of human T47D cells by sulforhodamine B assay
[6] = Growth inhibition of human Hs 578T cells by sulforhodamine B assay
[7] = tested on: MDA-MB-231; experiment: Growth inhibition of human MDA-MB-231 cells by sulforhodamine B assay
[8] = tested on: UO-31; experiment: Growth inhibition of human UO31 cells by sulforhodamine B assay
[9] = tested on: CAKI-1; experiment: Growth inhibition of human CAKI-1 cells by sulforhodamine B assay
[10] = tested on: T47D; experiment: Growth inhibition of human T47D cells assessed as cell growth at 10^-4 M by sulforhodamine B assay; details: read-out: Activity
[11] = tested on: OVCAR-3; experiment: Growth inhibition of human OVCAR3 cells assessed as cell growth at 10^-4 M by sulforhodamine B assay; details: read-out: Activity
[12] = tested on: UACC-257; experiment: Growth inhibition of human UACC257 cells assessed as cell growth at 10^-4 M by sulforhodamine B assay; details: read-out: Activity
[13] = tested on: SK-MEL-5; experiment: Growth inhibition of human SK-MEL-5 cells assessed as cell growth at 10^-4 M by sulforhodamine B assay; details: read-out: Activity
[14] = tested on: SK-MEL-28; experiment: Growth inhibition of human SK-MEL-28 cells assessed as cell growth at 10^-4 M by sulforhodamine B assay; details: read-out: Activity
[15] = tested on: COLO 205; experiment: Growth inhibition of human COLO205 cells assessed as cell growth at 10^-4 M by sulforhodamine B assay; details: read-out: Activity
[16] = tested on: NCI-H460; experiment: Growth inhibition of human NCI-H460 cells assessed as cell growth at 10^-4 M by sulforhodamine B assay; details: read-out: Activity
[17] = tested on: NCI-H23; experiment: Growth inhibition of human NCI-H23 cells assessed as cell growth at 10^-4 M by sulforhodamine B assay; details: read-out: Activity
[18] = tested on: MOLT-4; experiment: Growth inhibition of human MOLT4 cells assessed as cell growth at 10^-4 M by sulforhodamine B assay; details: read-out: Activity
[19] = tested on: HL-60(TB); experiment: Growth inhibition of human HL-60(TB) cells assessed as cell growth at 10^-4 M by sulforhodamine B assay; details: read-out: Activity
[20] = tested on: CAKI-1; experiment: Growth inhibition of human CAKI-1 cells assessed as cell growth at 10^-6 M by sulforhodamine B assay; details: read-out: Activity
[21] = Growth inhibition of human NCI-ADR-RES cells assessed as cell growth at 10^-6 M by sulforhodamine B assay; details: read-out: Activity
[22] = tested on: OVCAR-3; experiment: Growth inhibition of human OVCAR3 cells assessed as cell growth at 10^-6 M by sulforhodamine B assay; details: read-out: Activity
[23] = tested on: MDA-MB-435; experiment: Growth inhibition of human MDA-MB-435 cells assessed as cell growth at 10^-6 M by sulforhodamine B assay; details: read-out: Activity
[24] = tested on: Malme-3M; experiment: Growth inhibition of human MALME-3M cells assessed as cell growth at 10^-6 M by sulforhodamine B assay; details: read-out: Activity
[25] = tested on: U-251; experiment: Growth inhibition of human U251 cells assessed as cell growth at 10^-6 M by sulforhodamine B assay; details: read-out: Activity
[26] = tested on: NCI-H460; experiment: Growth inhibition of human NCI-H460 cells assessed as cell growth at 10^-6 M by sulforhodamine B assay; details: read-out: Activity
[27] = tested on: NCI-H522; experiment: Growth inhibition of human NCI-H522 cells assessed as cell growth at 10^-6 M by sulforhodamine B assay; details: read-out: Activity
[28] = tested on: RPMI-8226; experiment: Growth inhibition of human RPMI8226 cells assessed as cell growth at 10^-6 M by sulforhodamine B assay; details: read-out: Activity
[29] = tested on: CCRF-CEM; experiment: Growth inhibition of human CCRF-CEM cells assessed as cell growth at 10^-6 M by sulforhodamine B assay; details: read-out: Activity
[30] = Growth inhibition of human Hs 578T cells assessed as cell growth at 10^-7 M by sulforhodamine B assay; details: read-out: Activity
[31] = tested on: OVCAR-4; experiment: Growth inhibition of human OVCAR4 cells assessed as cell growth at 10^-7 M by sulforhodamine B assay; details: read-out: Activity
[32] = tested on: OVCAR-3; experiment: Growth inhibition of human OVCAR3 cells assessed as cell growth at 10^-7 M by sulforhodamine B assay; details: read-out: Activity
[33] = tested on: SK-MEL-2; experiment: Growth inhibition of human SK-MEL-2 cells assessed as cell growth at 10^-7 M by sulforhodamine B assay; details: read-out: Activity
[34] = tested on: SNB-75; experiment: Growth inhibition of human SNB75 cells assessed as cell growth at 10^-7 M by sulforhodamine B assay; details: read-out: Activity
[35] = tested on: SF-539; experiment: Growth inhibition of human SF539 cells assessed as cell growth at 10^-7 M by sulforhodamine B assay; details: read-out: Activity
[36] = tested on: HOP-92; experiment: Growth inhibition of human HOP92 cells assessed as cell growth at 10^-7 M by sulforhodamine B assay; details: read-out: Activity
[37] = tested on: NCI-H226; experiment: Growth inhibition of human NCI-H226 cells assessed as cell growth at 10^-7 M by sulforhodamine B assay; details: read-out: Activity
[38] = tested on: RPMI-8226; experiment: Growth inhibition of human RPMI8226 cells assessed as cell growth at 10^-7 M by sulforhodamine B assay; details: read-out: Activity
[39] = tested on: CCRF-CEM; experiment: Growth inhibition of human CCRF-CEM cells assessed as cell growth at 10^-7 M by sulforhodamine B assay; details: read-out: Activity
[40] = tested on: RXF 393; experiment: Growth inhibition of human RXF393 cells assessed as cell growth at 10^-8 M by sulforhodamine B assay; details: read-out: Activity
[41] = read-out: LC50 (the source's name)
[42] = read-out: pLC50 (the source's name) (converted)

CC(C)=CC(=O)O[C@@H]1CC(C)(C)C[C@H]2C3=CC[C@@H]4[C@@]5(C)CCC(=O)C(C)(C)[C@@H]5CC[C@@]4(C)[C@]3(C)CC[C@@]12C(=O)O
GI50 ([1]; read-out: GI50): 1.46 µM
CC50 [1, 41]: > 100 µM
TGI ([1]; read-out: TGI): 23.3 µM
GI50 ([1]; read-out: pGI50 (converted)): 1.48 µM
CC50 [1, 42]: > 100 µM
TGI ([1]; read-out: pTGI (converted)): 23.4 µM
GI50 ([2]; read-out: GI50): 2.14 µM
CC50 [2, 41]: > 100 µM
TGI ([2]; read-out: TGI): 22.1 µM
GI50 ([2]; read-out: pGI50 (converted)): 2.14 µM
CC50 [2, 42]: > 100 µM
TGI ([2]; read-out: pTGI (converted)): 22.4 µM
growth at 0.01 µM [3]: 104%
growth at 0.01 µM [4]: 105%
GI50 ([5]; read-out: GI50): 5.08 µM
CC50 [5, 41]: > 100 µM
TGI ([5]; read-out: TGI): > 100 µM
GI50 ([5]; read-out: pGI50 (converted)): 5.13 µM
CC50 [5, 42]: > 100 µM
TGI ([5]; read-out: pTGI (converted)): > 100 µM
GI50 ([6]; read-out: GI50): 4.16 µM
CC50 [6, 41]: > 100 µM
TGI ([6]; read-out: TGI): 53.6 µM
GI50 ([6]; read-out: pGI50 (converted)): 4.17 µM
CC50 [6, 42]: > 100 µM
TGI ([6]; read-out: pTGI (converted)): 53.7 µM
GI50 ([7]; read-out: GI50): 4.03 µM
CC50 [7, 41]: 71.1 µM
TGI ([7]; read-out: TGI): 21.8 µM
GI50 ([7]; read-out: pGI50 (converted)): 4.07 µM
CC50 [7, 42]: 70.8 µM
TGI ([7]; read-out: pTGI (converted)): 21.9 µM
GI50 ([8]; read-out: GI50): 2.95 µM
CC50 [8, 41]: > 100 µM
TGI ([8]; read-out: TGI): 32.2 µM
GI50 ([8]; read-out: pGI50 (converted)): 2.95 µM
CC50 [8, 42]: > 100 µM
TGI ([8]; read-out: pTGI (converted)): 32.4 µM
GI50 ([9]; read-out: GI50): 3.84 µM
CC50 [9, 41]: > 100 µM
TGI ([9]; read-out: TGI): 84.8 µM
GI50 ([9]; read-out: pGI50 (converted)): 3.8 µM
CC50 [9, 42]: > 100 µM
TGI ([9]; read-out: pTGI (converted)): 85.1 µM
growth at 100 µM [10]: 23%
growth at 100 µM [11]: -73%
growth at 100 µM [12]: -15%
growth at 100 µM [13]: -78%
growth at 100 µM [14]: 6%
growth at 100 µM [15]: -76%
growth at 100 µM [16]: -54%
growth at 100 µM [17]: -10%
growth at 100 µM [18]: -21%
growth at 100 µM [19]: -38%
growth at 1 µM [20]: 87%
growth at 1 µM [21]: 85%
growth at 1 µM [22]: 84%
growth at 1 µM [23]: 92%
growth at 1 µM [24]: 91%
growth at 1 µM [25]: 74%
growth at 1 µM [26]: 71%
growth at 1 µM [27]: 82%
growth at 1 µM [28]: 58%
growth at 1 µM [29]: 71%
growth at 0.1 µM [30]: 93%
growth at 0.1 µM [31]: 97%
growth at 0.1 µM [32]: 100%
growth at 0.1 µM [33]: 94%
growth at 0.1 µM [34]: 90%
growth at 0.1 µM [35]: 91%
growth at 0.1 µM [36]: 90%
growth at 0.1 µM [37]: 87%
growth at 0.1 µM [38]: 91%
growth at 0.1 µM [39]: 99%
growth at 0.01 µM [40]: 97%
